Tests used:
hΔCB1 = test system: hΔCB1; design: method as in unpublished results; conditions: HEK293 cells; ref unpublished results; cited from earlier work
hΔCB1 receptor = test system: T1, hΔCB1 receptor; test: Saturation binding assays (filtration and size-exclusion) with cell-free expressed hΔCB1; design: species or system human; conditions: cell-free expressed from pET15hΔCB1his6 and pET26shΔCB1his6, with nanodiscs, no T4 lysozyme
T1 construct: hCB1 receptor with an N-terminal 102 amino acid truncated residues (hΔCB1); host or cells: cell-free expression with nanodiscs
Experimental: The radioactive binding assays were performed with [^3H] CP-55,940 radioligand.

Structure (SMILES)	effect of N-terminal 102 amino acid truncation on binding (hΔCB1)	specific binding (hΔCB1 receptor)
CCCCCCC(C)(C)c1ccc([C@@H]2C[C@H](O)CC[C@H]2CCCO)c(O)c1 [CP-55,940]	truncation does not affect the binding	
CCCCCCC(C)(C)c1ccc([C@@H]2C[C@H](O)CC[C@H]2CCCO)c(O)c1 [[^3H] CP-55,940]		did not show any specific binding
